In patent US20120029015A1, “Novel medical use of kynurenic acid, its precursors and derivatives” (priority 2009, published 2012):
Marks after values point to notes of the source that are not given here.

Experiments:
Assay type in all cases: in vivo, Wistar rats
[1] = test system: caerulein-induced destruction of pancreatic tissue (DPT); experiment: Antioxidant capacity of plasma (FRAP) in caerulein-induced DPT; settings: KYNA 100 mg/kg/hr + caerulein, mean
Description: (§1) The experiments were performed using adult male Wistar rats. All experimental procedures were in compliance with currently accepted guidelines for care and use of animals. The study protocol was approved by the Bioethics Committee. Before the experiment, rats were given no food for 24 hours, water was available in unrestricted quantities. Destruction of pancreatic tissue (DPT) was induced by injections of caerulein (dose of 15 μg/kg/hr). Animals were randomly assigned to the following groups. […] After 6 hours from inducing DPT antioxidative effects were determined by means of measuring the ferric reducing ability of plasma (FRAP) and levels of the markers of oxidative stress: malonyldialdehyde and 4-hydroxynonenals (MDA+4-HNE). The measurement of pancreatic edema, the serum α-amylase activity and histopathological analysis of pancreas were carried out to assess the progress of the disease.

[2] = test system: caerulein-induced destruction of pancreatic tissue (DPT); experiment: Water content of pancreatic tissue (pancreatic edema) in caerulein-induced destruction of pancreatic tissue; settings: for Water content of pancreas: 6 hours after inducing DPT, % of wet weight, mean
Description: as §1, with “disease. […] Kynurenic acid in the dose of 50 mg/kg/hrs was also effective (Table 1). Since kynurenic acid prevents edema induced by the pancreas damaging factor caerulein, kynurenic acid, its salts and derivatives may be used in prevention and therapy of conditions leading to injury of pancreatic tissue.” for “disease.”

[3] = test system: caerulein-induced destruction of pancreatic tissue (DPT); experiment: Plasma levels of lipid peroxidation products (MDA + 4-HNE) in caerulein-induced DPT; settings: KYNA 100 mg/kg/hr + caerulein, mean
Description: as §1, with “disease. In the group of animals with caerulein-induced destruction of pancreatic tissue significant increase of concentration of malonyldialdehyde (MDA) and 4-hydroxynonenals (4-HNE), two markers of oxidative stress, occurred.” for “disease.”

[4] = test system: caerulein-induced destruction of pancreatic tissue (DPT); experiment: Serum α-amylase activity in caerulein-induced DPT; settings: mean
Description: as §1, with “disease. The extent of the serum α-amylase elevation is roughly proportional to the degree of destruction of pancreatic tissue. In Table 3 it is shown that kynurenic acid in the dose of 100 mg/kg/hr prevents elevation of α-amylase in the serum of caerulein-treated rats. Kynurenic acid in the dose of 50 mg/kg/hrs was also effective. […]” for “disease.”

[5] = test system: caerulein-induced destruction of pancreatic tissue (DPT); experiment: Histological changes in pancreatic tissue in caerulein-induced DPT; settings: KYNA 100 mg/kg/hr + caerulein; mean ± SD; scale 0-3
Description: as §1, with “disease. Histopathological presentation of pancreas injury consists of edema, vacuolization or necrosis (Table 2). Since in the situation of application of a pancreas damaging agent caerulein kynurenic acid in the dose of 100 mg/kg/hr prevents or diminishes edema, vacuolization, and number of necrotic foci, kynurenic acid, its salts and derivatives may be of use in prevention and therapy of conditions leading to destruction of pancreatic tissue and are characterized by such histological picture.” for “disease.”

## O=C(O)c1cc(O)c2ccccc2n1 [KYNA, kynurenic acid]
[1]
  FRAP (Ferric Reducing Ability of Plasma): 602.4* μM
[2]; KYNA 50 mg/kg/hr infusion + caerulein
  Water content of pancreas: 73.03* %
[2]; KYNA 100 mg/kg/hr infusion + caerulein
  Water content of pancreas: 68.22* %
[2]; KYNA 100 mg/kg/hr infusion + caerulein, macroscopic presentation
  Macroscopic edema of pancreas: no edema was noted
[3]
  MDA + 4-HNE plasma level: 3.11* nmol/ml
[4]; KYNA 50 mg/kg/hr + caerulein
  Serum α-amylase activity: 5262.26^#* U/l
[4]; KYNA 100 mg/kg/hr + caerulein
  Serum α-amylase activity: 3495.20* U/l
[5]
  Edema (0-3), histological score: 1.6 ± 0.45
  Necrosis (0-3), histological score: 0.0 ± 0.0
  Vacuolisation (0-3), histological score: 0.8 ± 0.44
